# Experiments:
# Settings in all cases: stereoisomer not certain
# [1] = RP, Waters ACQUITY UPLC BEH C18, 100 × 2.1 mm, 1.7 µm, 0.1 mL/min, estimated dead time 2.2 min; A: water + 0.1% formic acid, pH 3; B: methanol + 0.1% formic acid, pH 3; gradient (min/%B) 0/5 5/5 25/95 25.1/100 35/100 35.1/5 45/5
# [2] = RP, Waters CORTECS T3, 100 × 2.1 mm, 2.7 µm, 0.3 mL/min, estimated dead time 0.73 min; A: water + 0.1% formic acid, pH 3; B: methanol + 0.1% formic acid, pH 3; gradient (min/%B) 0/5 5/5 25/100 30/100 30.1/5 35/5
# [3] = RP, Waters CORTECS T3, 100 × 2.1 mm, 2.7 µm, 0.1 mL/min, estimated dead time 2.2 min; A: water + 0.1% formic acid, pH 3; B: methanol + 0.1% formic acid, pH 3; gradient (min/%B) 0/5 5/5 25/95 25.1/100 35/100 35.1/5 45/5
# [4] = RP, Waters CORTECS T3, 100 × 2.1 mm, 2.7 µm, 0.3 mL/min, estimated dead time 0.73 min; A: water + 0.1% formic acid, pH 3; B: methanol + 0.1% formic acid, pH 3; gradient (min/%B) 0/0 1/0 6/5 30/100 35/100 35.1/0 40/0
# [5] = RP, Waters CORTECS T3, 100 × 2.1 mm, 2.7 µm, 0.15 mL/min, estimated dead time 1.5 min; A: water + 0.1% formic acid, pH 3; B: methanol + 0.1% formic acid, pH 3; gradient (min/%B) 0/0 1/0 6/5 30/100 35/100 35.1/0 40/0
# [6] = RP, Waters ACQUITY UPLC BEH C18, 100 × 2.1 mm, 1.7 µm, 0.2 mL/min, estimated dead time 1.1 min; A: water + 0.025% formic acid + 20 mM ammonium acetate + 0.055% ammonium hydroxide, pH 7; B: methanol; gradient (min/%B) 0/5 5/5 25/100 30/100 30.1/5 35/5
# [7] = RP, Waters CORTECS T3, 100 × 2.1 mm, 2.7 µm, 0.3 mL/min, estimated dead time 0.73 min; A: water + 0.1% formic acid, pH 3; B: methanol + 0.1% formic acid, pH 3; gradient (min/%B) 0/5 5/5 25/95 25.1/100 35/100 35.1/5 45/5
# [8] = RP, Waters ACQUITY UPLC BEH C18, 100 × 2.1 mm, 1.7 µm, 0.1 mL/min, estimated dead time 2.2 min; A: water + 0.1% formic acid, pH 3; B: methanol + 0.1% formic acid, pH 3; gradient (min/%B) 0/5 5/5 25/100 30/100 30.1/5 35/5
# [9] = RP, Waters ACQUITY UPLC BEH C18, 100 × 2.1 mm, 1.7 µm, 0.1 mL/min, estimated dead time 2.2 min; A: water + 0.1% formic acid, pH 3; B: methanol + 0.1% formic acid, pH 3; gradient (min/%B) 0/5 5/5 25/95 25.1/100 35/100 35.1/5 45/5; remark: listed apart in the source
# [10] = RP, Waters CORTECS T3, 100 × 2.1 mm, 2.7 µm, 0.25 mL/min, estimated dead time 0.88 min; A: water + 0.1% formic acid, pH 3; B: methanol + 0.1% formic acid, pH 3; gradient (min/%B) 0/5 5/5 25/95 25.1/100 35/100 35.1/5 45/5
# [11] = RP, Waters CORTECS T3, 100 × 2.1 mm, 2.7 µm, 0.3 mL/min, estimated dead time 0.73 min; A: water + 0.1% formic acid, pH 3; B: methanol + 0.1% formic acid, pH 3; gradient (min/%B) 0/0 5/0 25/100 30/100 30.1/0 35/0
# [12] = RP, Waters CORTECS T3, 100 × 2.1 mm, 2.7 µm, 0.2 mL/min, estimated dead time 1.1 min; A: water + 0.1% formic acid, pH 3; B: methanol + 0.1% formic acid, pH 3; gradient (min/%B) 0/0 1/0 6/5 30/100 35/100 35.1/0 40/0
# [13] = as above; remark: listed apart in the source
# [14] = RP, Waters ACQUITY UPLC BEH C18, 100 × 2.1 mm, 1.7 µm, 0.2 mL/min, estimated dead time 1.1 min; A: water + 0.1% formic acid, pH 3; B: methanol + 0.1% formic acid, pH 3; gradient (min/%B) 0/5 5/5 25/100 30/100 30.1/5 35/5
# [15] = RP, Waters CORTECS T3, 100 × 2.1 mm, 2.7 µm, 0.1 mL/min, estimated dead time 2.2 min; A: water + 0.1% formic acid, pH 3; B: methanol + 0.1% formic acid, pH 3; gradient (min/%B) 0/0 1/0 6/5 30/100 35/100 35.1/0 40/0
# [16] = RP, Waters CORTECS T3, 100 × 2.1 mm, 2.7 µm, 0.3 mL/min, estimated dead time 0.73 min; A: water + 0.1% formic acid, pH 3; B: methanol + 0.1% formic acid, pH 3; gradient (min/%B) 0/0 1/0 6/5 30/100 35/100 35.1/0 40/0; remark: listed apart in the source
# [17] = RP, Waters CORTECS T3, 100 × 2.1 mm, 2.7 µm, 0.25 mL/min, estimated dead time 0.88 min; A: water + 0.1% formic acid, pH 3; B: methanol + 0.1% formic acid, pH 3; gradient (min/%B) 0/0 1/0 6/5 30/100 35/100 35.1/0 40/0
# [18] = RP, Waters CORTECS T3, 100 × 2.1 mm, 2.7 µm, 0.2 mL/min, estimated dead time 1.1 min; A: water + 0.1% formic acid, pH 3; B: methanol + 0.1% formic acid, pH 3; gradient (min/%B) 0/5 5/5 25/95 25.1/100 35/100 35.1/5 45/5
# [19] = RP, Waters ACQUITY UPLC BEH C18, 100 × 2.1 mm, 1.7 µm, 0.1 mL/min, estimated dead time 2.2 min; A: water + 0.1% formic acid, pH 3; B: methanol + 0.1% formic acid, pH 3; gradient (min/%B) 0/5 5/5 25/95 25.1/100 35/100 35.1/5 45/5; remark: listed apart in the source
# [20] = HILIC, Waters XBridge BEH Amide, 100 × 2.1 mm, 2.5 µm, 0.5 mL/min, estimated dead time 0.44 min; A: water + 0.1% acetic acid + 10 mM ammonium acetate, pH 4; B: 5% water + 95% acetonitrile + 0.1% acetic acid + 10 mM ammonium acetate, pH 4; gradient (min/%B) 0/95 5/95 20/57 25/57 30/95 40/95
# [21] = HILIC, Merck SeQuant ZIC-HILIC, 150 × 2.1 mm, 5 µm, 0.75 mL/min, estimated dead time 0.44 min; A: water + 0.1% acetic acid + 10 mM ammonium acetate, pH 4; B: 5% water + 95% acetonitrile + 0.1% acetic acid + 10 mM ammonium acetate, pH 4; gradient (min/%B) 0/95 5/95 20/57 25/57 30/95 40/95
# [22] = HILIC, Merck SeQuant ZIC-HILIC, 150 × 2.1 mm, 5 µm, 0.75 mL/min, estimated dead time 0.44 min; A: water + 10 mM ammonium formate, pH 6; B: 5% water + 95% acetonitrile + 10 mM ammonium formate, pH 6; gradient (min/%B) 0/95 5/95 20/57 25/57 30/95 40/95
# [23] = RP, Waters CORTECS T3, 100 × 2.1 mm, 2.7 µm, 0.3 mL/min, estimated dead time 0.73 min; A: water + 0.1% formic acid, pH 3; B: methanol + 0.1% formic acid, pH 3; gradient (min/%B) 0/0 5/0 25/100 30/100 30.1/0 35/0; remark: listed apart in the source
# [24] = RP, Waters ACQUITY UPLC BEH C18, 100 × 2.1 mm, 1.7 µm, 0.2 mL/min, estimated dead time 1.1 min; A: water + 0.025% formic acid + 20 mM ammonium acetate + 0.055% ammonium hydroxide, pH 7; B: methanol; gradient (min/%B) 0/5 5/5 25/100 30/100 30.1/5 35/5; remark: listed apart in the source
# [25] = RP, Waters CORTECS T3, 100 × 2.1 mm, 2.7 µm, 0.2 mL/min, estimated dead time 1.1 min; A: water + 0.045% formic acid + 0.11% ammonium hydroxide, pH 7; B: methanol; gradient (min/%B) 0/5 5/5 25/95 25.1/100 35/100 35.1/5 45/5
# [26] = RP, Waters ACQUITY UPLC BEH C18, 100 × 2.1 mm, 1.7 µm, 0.1 mL/min, estimated dead time 2.2 min; A: water + 0.045% formic acid + 0.11% ammonium hydroxide, pH 7; B: methanol; gradient (min/%B) 0/5 5/5 25/95 25.1/100 35/100 35.1/5 45/5
# [27] = RP, Thermo Scientific Hypercarb, 150 × 2.1 mm, 5 µm, 0.1 mL/min, estimated dead time 3.3 min; A: water + 0.1% formic acid, pH 3; B: methanol + 0.1% formic acid, pH 3; gradient (min/%B) 0/5 5/5 20/100 35/100 35.1/5 45/5
Compound,LC retention time [1],LC retention time [2],LC retention time [3],LC retention time [4],LC retention time [5],LC retention time [6],LC retention time [7],LC retention time [8],LC retention time [9],LC retention time [12],LC retention time [13],LC retention time [14],LC retention time [15],LC retention time [17],LC retention time [19],LC retention time [20],LC retention time [21],LC retention time [23],LC retention time [24],LC retention time [25],also measured
"Nc1nc2c(ncn2C2OC3COP(=O)(O)OC3C2O)c(=O)[nH]1 (stereo not given) [GUANOSINE 3',5'-CYCLIC MONOPHOSPHATE]",2.72 min,2.67 min,7.41 min,5.42 min,9.04 min,1.41 min,2.59 min,7.01 min,6.68 min,7.21 min,7.35 min,3.76 min,3.77 min,6.2 min,7.13 min,12.3 min,12.3 min,,,,LC retention time [10]: 3.22 min; LC retention time [11]: 6.99 min; LC retention time [16]: 5.71 min; LC retention time [18]: 11.1 min
CSCC1OC(n2cnc3c(N)ncnc32)C(O)C1O (stereo not given) [5'-METHYLTHIOADENOSINE],13.1 min,8.5 min,13 min,10.1 min,12.6 min,,8.59 min,12.9 min,13.1 min,11.3 min,,,9.84 min,10.7 min,,1.61 min,1.23 min,9.9 min,12.1 min,12.3 min,LC retention time [22]: 1.29 min; LC retention time [26]: 15.4 min
Cc1cc2nc3[nH]c(=O)[nH]c(=O)c3nc2cc1C [LUMICHROME],19.6 min,14.6 min,19.6 min,,19.6 min,13.1 min,15 min,19.1 min,19.6 min,18.3 min,18.3 min,16 min,16.3 min,17.5 min,19.6 min,,,15.3 min,16 min,16.4 min,LC retention time [10]: 15.5 min; LC retention time [26]: 19.5 min
"Nc1ccn(C2OC(CO)C3OP(=O)([O-])OC32)c(=O)n1 (stereo not given) [CYTIDINE 2',3'-CYCLIC MONOPHOSPHATE]",2.72 min,,,,1.78 min,1.36 min,,2.74 min,2.66 min,1.34 min,1.35 min,1.34 min,,1.09 min,2.67 min,,12.1 min,0.89 min,,,LC retention time [11]: 0.89 min
Cn1cnc2c(ncn2C2OC(CO)C(O)C2O)c1=N (stereo not given) [1-METHYLADENOSINE],2.66 min,5.02 min,10.9 min,8.04 min,10.7 min,,4.96 min,10.5 min,10.6 min,9.42 min,,,7.08 min,8.69 min,,2.22 min,1.51 min,8.57 min,10.5 min,10.7 min,LC retention time [27]: 21.8 min; LC retention time [22]: 1.56 min; LC retention time [26]: 13.5 min

# — the RepoRT retention time repository (doi:10.1016/j.jchromb.2020.122105)
